Experimental findings from US20190053492A1, “SUBSTITUTED PYRIDINE COMPOUNDS AS PESTICIDES” (Bayer CropScience Aktiengesellschaft, priority 2016, published 2019) are described below.

Molecules are shown by their SMILES. Read-outs that look alike come from different tables or passages of the source.

The subject of series [1] is Myzus persicae. Description: Myzus persicae spray test. It counts as in vivo. To be noted: application rate 500 g/ha, after 6 days, Chinese cabbage leaf discs. As to the method:
Myzus persicae—Spray Test
Solvent: 78 parts by weight of acetone • • 1.5 parts by weight of dimethylformamide
Emulsifier: alkylaryl polyglycol ether
To produce a suitable active ingredient formulation, 1 part by weight of active ingredient is dissolved with the specified parts by weight of solvent and made up with water containing an emulsifier concentration of 1000 ppm until the desired concentration is attained. To produce further test concentrations, the formulation is diluted with emulsifier-containing water.
Discs of Chinese cabbage leaves (Brassica pekinensis) infested by all stages of the green peach aphid (Myzus persicae) are sprayed with an active ingredient formulation of the desired concentration.
After 6 days, the efficacy in % is determined. 100% means that all the aphids have been killed; 0% means that no aphids have been killed.

The subject of series [2] is Ctenocephalides felis. Description: Ctenocephalides felis oral test. It counts as in vivo. To be noted: Ctenocephalides felis, po, 48 h; application rate 100 ppm in citrated cattle blood, after 2 days, adult cat fleas; read-out: efficacy (kill in %). Put shortly:
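About 20 unfed adult cat fleas fed through a parafilm membrane on citrated cattle blood dosed with compound from a DMSO formulation. Percent kill was scored after 2 days.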

In series [3] the test system is Meloidogyne incognita. Kind of series: Meloidogyne incognita test. To be noted: application rate 20 ppm, after 14 days, lettuce. It counts as in vivo. The protocol:
Meloidogyne incognita Test Solvent: 125.0 parts by weight of acetone To produce a suitable active ingredient formulation, 1 part by weight of active ingredient is mixed with the stated amount of solvent and the concentrate is diluted with water to the desired concentration. Vessels are filled with sand, active ingredient solution, an egg/larvae suspension of the southern root-knot nematode (Meloidogyne incognita) and lettuce seeds. The lettuce seeds germinate and the plants develop. The galls develop on the roots. After 14 days, the nematicidal efficacy in % is determined by the formation of galls. 100% means that no galls were found; 0% means that the number of galls on the treated plants corresponds to the untreated control.

Series [4] concerns Phaedon cochleariae. Kind of series: Phaedon cochleariae spray test. It counts as in vivo. The settings on record: Phaedon cochleariae, foliar, 168 h; application rate 500 g/ha, after 7 days, Chinese cabbage leaf discs; read-out: efficacy (beetle larvae killed). Put shortly:
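Chinese cabbage leaf discs sprayed with compound in acetone/DMF and emulsifier-containing water, then infested with mustard beetle larvae once dry. Efficacy in % scored after 7 days (100% = all larvae killed, 0% = none).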

For series [5], the system named is Spodoptera frugiperda. Kind of series: Spodoptera frugiperda spray test. To be noted: Spodoptera frugiperda, foliar, 168 h, after 7 days, maize leaf discs, read-out: efficacy (caterpillars killed). It counts as in vivo. Put shortly: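 Maize leaf discs were sprayed with compound formulated in acetone/DMF and emulsifier-containing water, dried, then infested with Spodoptera frugiperda caterpillars. Percent kill was scored after 7 days, from 100% (all dead) to 0% (none dead).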

A short description of series [6]: log P by HPLC on reversed-phase column (C 18), EEC Directive 79/831 Annex V.A8. It counts as physicochemical. To be noted: 55° C.; for chromatographic logP: reversed-phase HPLC column (C 18). The protocol:
Temperature: 55° C. […] Called log P (HCOOH) in the table. […] Called log P (neutral) in the table.

`N#Cc1ccc(CNC(=O)c2cc(-c3ccc(C(F)(F)F)cc3)cc(N(C(=O)C3CC3)C(=O)C3CC3)n2)cc1F` [Example I-028, 6-[Bis(cyclopropylcarbonyl)amino]-N-(4-cyano-3-fluorobenzyl)-4-[4-(trifluoromethyl)phenyl]pyridine-2-carboxamide]: the “efficacy (aphids killed)” value in series [1] turned out to be 90%. In series [2], the pest or weed control at 100 ppm stood at 100%. The “nematicidal efficacy (formation of galls)” value in series [3] was determined as 90%. Further, the pest or weed control at 500 g/ha in series [4] and in series [5] (application rate 500 g/ha) was 100% each time. Moreover, the pest or weed control at 100 g/ha in series [5] (application rate 100 g/ha) was determined as 83%. The LOGP_HCOOH in series [6] (log P (HCOOH), acidic range pH 2.7, 0.1% aqueous formic acid and acetonitrile, reversed-phase column (C 18)) was found to be 4.27. The molecule further registered an LOGP_NEUTRAL in series [6] (log P, neutral range, HPLC on reversed-phase column (C 18)) of 4.18. Besides, the chromatographic logP in series [6] (pH 2.7, LC-MS acidic range, pH 2.7, 0.1% formic acid/acetonitrile, read-out: log P (acidic) / log P (HCOOH)) was 4.27; in series [6] (pH 7.8, LC-MS neutral range, pH 7.8, ammonium hydrogencarbonate/acetonitrile, read-out: log P (neutral)), 4.18.
